Experimental data: patent publication US8461152B2, “Arylcyclohexylethers of dihydrotetraazabenzoazulenes” (Hoffmann-La Roche Inc., priority 2008, dated 2013)
Structures can show the parent of a compound that is named as a salt.

Target: T1, human V1a receptor (Homo sapiens, UniProt P37288)
T1 construct: expressed in transfected cells; host or cells: HEK293 cells, transiently transfected; membrane preparation
Assay: human V1a receptor binding studies (SPA, 3H-Vasopressin, membranes of transfected HEK293 cells)
Settings: displacement of 3H-Vasopressin, HEK293 cell membranes, 1 h at room temperature; Ki by Cheng-Prussoff equation; read-out: pKi (hV1a) (converted)
Experimental: The human V1a receptor was cloned by RT-PCR from total human liver RNA. The coding sequence was subcloned in an expression vector after sequencing to confirm the identity of the amplified sequence. […] Cell membranes were prepared from HEK293 cells transiently transfected with the expression vector and grown in 20 liter fermenters with the following protocol.
50 g of cells are resuspended in 30 ml freshly prepared ice cold Lysis buffer (50 mM HEPES, 1 mM EDTA, 10 mM magnesium dichloride adjusted to pH=7.4+complete cocktail of protease inhibitor (Roche Diagnostics)). Homogenized with Polytron for 1 min and sonicated on ice for 2×2 minutes at 80% intensity (Vibracell sonicator). The preparation is centrifuged 20 min at 500 g at 4° C., the pellet is discarded and the supernatant centrifuged 1 hour at 43'000 g at 4° C. (19'000 rpm). The pellet is resuspended in 12.5 ml Lysis buffer+12.5 ml Sucrose 20% and homogenized using a Polytron for 1-2 min. The protein concentration is determined by the Bradford method and aliquots are stored at −80° C. until use. For binding studies 60 mg Yttrium silicate SPA beads (Amersham) are mixed with an aliquot of membrane in binding buffer (50 mM Tris, 120 mM sodium chloride, 5 mM potassium chloride, 2 mM Calcium dichloride, 10 mM magnesium dichloride) for 15 minutes with mixing. 50 μl of bead/membrane mixture is then added to each well of a 96 well plate, followed by 50 μl of 4 nM 3H-Vasopressin (American Radiolabeled Chemicals). For total binding measurement 100 μl of binding buffer are added to the respective wells, for non-specific binding 100 μl of 8.4 mM cold vasopressin and for compound testing 100 μl of a serial dilution of each compound in 2% dimethyl sulfoxide. The plate is incubated 1 h at room temperature, centrifuged […] at 1000 g and counted on a Packard Top-Count. Non-specific binding counts are subtracted from each well and data is normalized to the maximum specific binding set at 100%. To calculate an IC 50 the curve is fitted using a non-linear regression model (XLfit) and the Ki is calculated using the Cheng-Prussoff equation.

T1 sequence (P37288 whole entry): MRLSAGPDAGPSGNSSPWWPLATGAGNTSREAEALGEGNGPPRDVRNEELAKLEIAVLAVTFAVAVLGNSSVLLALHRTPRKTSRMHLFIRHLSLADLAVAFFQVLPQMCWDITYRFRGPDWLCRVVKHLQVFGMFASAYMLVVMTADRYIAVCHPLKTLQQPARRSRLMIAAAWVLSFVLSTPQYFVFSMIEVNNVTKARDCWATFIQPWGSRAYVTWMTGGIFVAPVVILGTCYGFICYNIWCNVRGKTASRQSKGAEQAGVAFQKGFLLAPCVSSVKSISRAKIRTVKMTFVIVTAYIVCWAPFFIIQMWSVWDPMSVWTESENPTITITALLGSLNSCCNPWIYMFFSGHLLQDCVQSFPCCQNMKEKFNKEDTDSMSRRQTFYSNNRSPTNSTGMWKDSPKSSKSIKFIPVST

Structure (SMILES) | Ki
Clc1ccc2c(c1)CNCc1nnc([C@H]3CC[C@H](Oc4ccccc4)CC3)n1-2 [Example 2, trans-8-Chloro-1-(4-phenoxy-cyclohexyl)-5,6-dihydro-4H-2,3,5,10b-tetraaza-benzoazulene hydrochloride] | 4.37 nM
CN(C)S(=O)(=O)N1Cc2cc(Cl)ccc2-n2c(nnc2[C@H]2CC[C@H](Oc3ccccc3)CC2)C1 [Example 8, trans-8-Chloro-1-(4-phenoxy-cyclohexyl)-4H,6H-2,3,5,10b-tetraaza-benzoazulene-5-sulfonic acid dimethylamide] | 2 nM
CC(C)(C)OC(=O)N1Cc2cc(Cl)ccc2-n2c(nnc2[C@H]2CC[C@H](Oc3cccnn3)CC2)C1 [Example 92, trans-8-Chloro-1-[4-(pyridazin-3-yloxy)-cyclohexyl]-4H,6H-2,3,5,10b-tetraaza-benzo[e]azulene-5-carboxylic acid tert-butyl ester] | 2.4 nM
CC(C)(C)OC(=O)N1Cc2cc(Cl)ccc2-n2c(nnc2[C@H]2CC[C@H](Oc3cccnc3)CC2)C1 [Example 61, trans-8-Chloro-1-[4-(pyridin-3-yloxy)-cyclohexyl]-4H,6H-2,3,5,10b-tetraaza-benzoazulene-5-carboxylic acid tert-butyl ester] | 1.51 nM
CN1Cc2cc(Cl)ccc2-n2c(nnc2[C@H]2CC[C@H](Oc3ncccn3)CC2)C1 [Example 82, trans-8-Chloro-5-methyl-1-[4-(pyrimidin-2-yloxy)-cyclohexyl]-5,6-dihydro-4H-2,3,5,10b-tetraaza-benzo[e]azulene] | 5.5 nM
CC(C)(C)OC(=O)N1Cc2cc(Cl)ccc2-n2c(nnc2[C@H]2CC[C@H](Oc3ccccc3F)CC2)C1 [Example 43, trans-8-Chloro-1-[4-(2-fluoro-phenoxy)-cyclohexyl]-4H,6H-2,3,5,10b-tetraaza-benzo[e]azulene-5-carboxylic acid tert-butyl ester] | 6.17 nM
CC(C)N1Cc2cc(Cl)ccc2-n2c(nnc2[C@H]2CC[C@H](Oc3ccccc3)CC2)C1 [Example 7, trans-8-Chloro-5-isopropyl-1-(4-phenoxy-cyclohexyl)-5,6-dihydro-4H-2,3,5,10b-tetraaza-benzoazulene] | 1.7 nM
CC(C)(C)OC(=O)N1Cc2cc(Cl)ccc2-n2c(nnc2[C@H]2CC[C@H](Oc3cccc(Cl)n3)CC2)C1 [Example 70, trans-8-Chloro-1-[4-(6-chloro-pyridin-2-yloxy)-cyclohexyl]-4H,6H-2,3,5,10b-tetraaza-benzo[e]azulene-5-carboxylic acid tert-butyl ester] | 9.12 nM
CC(C)(C)OC(=O)N1Cc2cc(Cl)ccc2-n2c(nnc2[C@H]2CC[C@H](Oc3ccc(F)cc3)CC2)C1 [Example 17, trans-8-Chloro-1-[4-(4-fluoro-phenoxy)-cyclohexyl]-4H,6H-2,3,5,10b-tetraaza-benzoazulene-5-carboxylic acid tert-butyl ester] | 3.72 nM
N#Cc1ccccc1O[C@H]1CC[C@H](c2nnc3n2-c2ccc(Cl)cc2CNC3)CC1 [Example 47, trans-2-[4-(8-Chloro-5,6-dihydro-4H-2,3,5,10b-tetraaza-benzo[e]azulen-1-yl)-cyclohexyloxy]-benzonitrile hydrochloride] | 1.2 nM
COc1cccc(O[C@H]2CC[C@H](c3nnc4n3-c3ccc(Cl)cc3CN(C)C4)CC2)c1 [Example 31, trans-8-Chloro-1-[4-(3-methoxy-phenoxy)-cyclohexyl]-5-methyl-5,6-dihydro-4H-2,3,5,10b-tetraaza-benzoazulene] | 2.09 nM
CC(C)(C)OC(=O)N1Cc2cc(Cl)ccc2-n2c(nnc2[C@H]2CC[C@H](Oc3cccc(C(C)(C)C)c3)CC2)C1 [Example 38, trans-1-[4-(3-tert-Butyl-phenoxy)-cyclohexyl]-8-chloro-4H,6H-2,3,5,10b-tetraaza-benzo[e]azulene-5-carboxylic acid tert-butyl ester] | 18.2 nM
